Counter-ions that a name gives are not always drawn.

The assay deals with T1, recombinant human Itk kinase domain fused with GST (Homo sapiens, UniProt Q08881).
T1 construct: recombinant human Itk kinase domain fused with GST (Glutathione S-Transferase); GST (Glutathione S-Transferase); made in house; host or cells: High Five insect cells
T1 sequence (Q08881 363-615 limits assumed): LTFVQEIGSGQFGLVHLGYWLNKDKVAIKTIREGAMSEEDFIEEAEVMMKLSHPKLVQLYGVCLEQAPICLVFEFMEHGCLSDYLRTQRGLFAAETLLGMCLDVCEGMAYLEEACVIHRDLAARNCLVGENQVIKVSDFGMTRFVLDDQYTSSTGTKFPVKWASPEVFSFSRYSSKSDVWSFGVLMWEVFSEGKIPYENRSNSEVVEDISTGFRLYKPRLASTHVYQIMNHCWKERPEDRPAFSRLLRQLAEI
Put plainly: Itk LANCE TRF Assay. Format: biochemical. As to conditions: 2 μM biotinylated peptide substrate, 50 μM ATP, 50 minutes RT, read-out: Inhibition of Kinase Itk (IC50 μM). As to the method:
The Itk kinase assay utilized recombinant human Itk kinase domain fused with GST (Glutathione S-Transferase). The protein was expressed in High five insect cells, purified in one step on an affinity chromatography glutathione column and stored in 50 mM Tris/HCl (pH 7.6), 150 mM NaCl, 5% (w/v) mannitol, 1 mM DTT, 30% glycerol at −70° C. The kinase substrate used in the assay was a biotinylated peptide derived from the Src-optimal substrate (Nair et al, J. Med. Chem., 38: 4276, 1995; biotin-AEEEIYGEFEAKKKK).
The assay additions were as follows: Test compounds (or controls; 1 μL in 100% DMSO) were added to black 96-well flat-bottomed plates (Greiner 655076) followed by 20 μL Itk in assay buffer and the reaction was started by adding 20 μL ATP and peptide substrate in assay buffer. The assay buffer constitution during, phosphorylation was: 50 mM HEPES (pH 6.8), 10 mM MgCl2, 0.015% Brij 35, 1 mM DTT, 10% glycerol, 160 ng/well Itk, 2 μM peptide substrate and 50 μM ATP. The assay was stopped after 50 minutes (RT) by adding 150 μL ice-cold Stop solution (50 mM Tris/HCl, pH 7.5, 10 mM EDTA, 0.9% NaCl and 0.1% BSA) together with LANCE reagents (2 nM PT66-Eu^3+, Wallac AD0069 and 5 μg/mL Streptavidin-APC, Wallac AD0059. Both concentrations were final in stopped assay solution). The plates were measured on a Wallac 1420 Victor 2 instrument with TRF settings after 1 h incubation, and the ratio (665 signal/615 signal)*10000 was used to calculate the inhibition values. IC50 values were determined using XLfit.
With `COc1cc(-c2nc3cc(Br)cnc3[nH]2)ccc1OCc1ccccc1` [Example 29, 2-[4-(Benzyloxy)-3-methoxyphenyl]-6-bromo-3H-imidazo[4,5-b]pyridine trifluoroacetate], the IC50 was 0.31 µM.
Consider `Brc1cnc2[nH]c(-c3ccc(OCCNc4nccs4)cc3)nc2c1` [Example 104, N-{2-[4-(6-Bromo-3H-imidazo[4,5-b]pyridin-2-yl)phenoxy]ethyl}-1,3-thiazol-2-amine bis(trifluoroacetate)], for which the IC50 was found to be 0.24 µM.
As to `OC1CCN(CC(O)COc2ccc(-c3nc4cc(Br)cnc4[nH]3)cc2)C1` (centres unmarked) [Example 124, 1-{3-[4-(6-Bromo-3H-imidazo[4,5-b]pyridin-2-yl)phenoxy]-2-hydroxypropyl}pyrrolidin-3-ol], the IC50 came to 0.43 µM.
With `OCCN1CCN(CC(O)COc2ccc(-c3nc4cc(Br)cnc4[nH]3)cc2)CC1` (centres unmarked) [Example 162, 1-[4-(6-Bromo-3H-imidazo[4,5-b]pyridin-2-yl)phenoxy]-3-[4-(2-hydroxyethyl)piperazin-1-yl]propan-2-ol bis(trifluoroacetate)] the figure was 0.53 µM; with `COc1ccc(CNc2ccc(-c3nc4cc(Br)cnc4[nH]3)cc2)cc1` [Example 180, N-[4-(6-Bromo-3H-imidazo[4,5-b]pyridin-2-yl)phenyl]-N-(4-methoxybenzyl)amine bis(trifluoroacetate)], 0.29 µM; with `Clc1cnc2[nH]c(-c3ccc(OCCN4CCOCC4)cc3)nc2c1N1CCCC1` [Example 236, 6-Chloro-2-[4-(2-morpholin-4-ylethoxy)phenyl]-7-pyrrolidin-1-yl-3H-imidazo[4,5-b]pyridine], 0.41 µM.
Take `Cc1ccc(-c2c(Cl)cnc3[nH]c(-c4ccc(OCCN5CCOCC5)cc4)nc23)cc1` [Example 238, 6-Chloro-7-(4-methylphenyl)-2-[4-(2-morpholin-4-ylethoxy)phenyl]-3H-imidazo[4,5-b]pyridine]: the IC50 was found to be 0.35 µM.
Then `COc1ccc(S(=O)(=O)Nc2ccc(-c3nc4ncc(Cl)c(Cl)c4[nH]3)cc2)cc1` [Example 267, N-[4-(6,7-Dichloro-1H-imidazo[4,5-b]pyridin-2-yl)phenyl]-4-methoxybenzenesulfonamide], with 0.26 µM.

For orientation: IC50 means the concentration that inhibits the measured activity by half.
